# System: not given
# Assay: not given
# Settings: not given
row,Compound,melting point [°C]
1,"Cc1ccc(CC2CN(CCN3C[C@@H](C)O[C@@H](C)C3)CCN2C(=O)c2cc(C(F)(F)F)cc(C(F)(F)F)c2)cc1O.Cl.Cl (relative stereo) [Example 4-(1), 1-[3,5-Bis(trifluoromethyl)benzoyl]-4-[2-(cis-2,6-dimethylmorpholino)ethyl]-2-(3-hydroxy-4-methylbenzyl)piperazine dihydrochloride]",188 to 200
2,"Cc1ccc(CC2CN(CC#Cc3cccnc3)CCN2C(=O)c2cc(C(F)(F)F)cc(C(F)(F)F)c2)cc1O.Cl.Cl (stereo not drawn) [Example 7, 1-[3,5-bis(trifluoromethyl)benzoyl]-2-(3-hydroxy-4-methylbenzyl)-4-[3-(3-pyridyl)-2-propynyl]piperazine dihydrochloride]",180 to 190
3,Cl.Cl.O=C(c1cc(C(F)(F)F)cc(C(F)(F)F)c1)N1CCN(CCCc2cccnc2)C[C@H]1Cc1ccc(Cl)cc1,60 to 100
4,COc1cc(C(=O)N2CCN(CCN3C[C@@H](C)O[C@@H](C)C3)C[C@H]2Cc2ccc(Cl)cc2)cc(C(F)(F)F)c1.Cl.Cl,90 to 120
5,COC[C@@H]1CN(CCN2CCN(C(=O)c3cc(F)cc(C(F)(F)F)c3)[C@H](Cc3ccc(Cl)c(O)c3)C2)CCO1.Cl.Cl,176 to 178
6,C[C@@H]1CN(CCN2CCN(C(=O)c3cc(C(F)(F)F)cc(C(F)(F)F)c3)[C@H](Cc3ccc(F)cc3)C2)C[C@H](C)O1.Cl.Cl,89 to 110.2
7,COC[C@@H]1CN(CCN2CCN(C(=O)c3cc(C(F)(F)F)cc(S(C)(=O)=O)c3)[C@H](Cc3ccc(C)c(O)c3)C2)CCO1.Cl.Cl,173.5 to 178
8,COc1cc(C[C@@H]2CN(CCN3[C@H](CO)CCC[C@@H]3CO)CCN2C(=O)c2cc(C(F)(F)F)cc(C(F)(F)F)c2)ccc1F.Cl.Cl,159 to 161
9,COc1cc(C[C@@H]2CN(CCN3CCOC(C)(C)C3)CCN2C(=O)c2cc(C(F)(F)F)cc(C(F)(F)F)c2)ccc1F.Cl.Cl,152 to 162
10,COc1cc(C(=O)N2CCN(CCCc3cccnc3)C[C@H]2Cc2ccc(Cl)c(O)c2)cc(C(F)(F)F)c1.Cl.Cl,90 to 110
11,Cl.Cl.Cl.Cl.O=C(c1cc(-c2ccncc2)cc(C(F)(F)F)c1)N1CCN(CCN2CCc3ncccc3C2)C[C@H]1Cc1ccc(C(F)(F)F)cc1,205 to 218
12,COc1cc(C(=O)N2CCN(CCN3CCc4ncccc4C3)C[C@H]2Cc2ccc(Cl)cc2)cc(C(F)(F)F)c1.Cl.Cl.Cl,140 to 170
13,Cl.Cl.O=C(c1cc(C(F)(F)F)cc(C(F)(F)F)c1)N1CCN(CCN2CCC(F)(F)CC2)C[C@H]1Cc1ccc(F)c(O)c1,190 to 200
14,CO[C@H]1CN(CCN2CCN(C(=O)c3cc(C(F)(F)F)cc(C(F)(F)F)c3)[C@H](Cc3ccc(C(F)(F)F)cc3)C2)C[C@@H]1OC.Cl.Cl,203 to 208
15,COc1cc(C[C@@H]2CN(CCN3C[C@@H](C)O[C@@H](C)C3)CCN2C(=O)c2cc(SC)cc(C(F)(F)F)c2)ccc1F.Cl.Cl,62.5 to 82.4
16,Cl.Cl.O=C(c1cc(C(F)(F)F)cc(C(F)(F)F)c1)N1CCN(Cc2cccnc2)C[C@H]1Cc1ccc(C(F)(F)F)cc1,198 to 223
17,Cl.Cl.Cl.O=C(c1cc(C(F)(F)F)cc(C(F)(F)F)c1)N1CCN(CCN2CCc3ncccc3C2)C[C@H]1Cc1ccc(F)c(O)c1,240 to 241
18,COC[C@@H]1CN(CCN2CCN(C(=O)c3cc(F)cc(C(F)(F)F)c3)[C@H](Cc3ccc(C(F)(F)F)cc3)C2)CCO1.Cl.Cl,173 to 176
19,COc1cc(C[C@@H]2CN(CCN3CC4CCC(C3)O4)CCN2C(=O)c2cc(C(F)(F)F)cc(C(F)(F)F)c2)ccc1F.Cl.Cl,163 to 178

row,Compound,melting point [°C]
1,COc1cc(C(=O)N2CCN(Cc3cnn(C)c3)C[C@H]2Cc2ccc(Cl)c(O)c2)cc(C(F)(F)F)c1.Cl,140 to 150
2,COC[C@@H]1CN(CCN2CCN(C(=O)c3cc(C(F)(F)F)cc(C(F)(F)F)c3)[C@H](Cc3ccc(C)c(N4CCOCC4)c3)C2)CCO1.Cl.Cl.Cl,150 to 170
3,COc1cc(C(=O)N2CCN(Cc3cccnc3)C[C@H]2Cc2ccc(Cl)c(O)c2)cc(C(F)(F)F)c1.Cl.Cl,215 to 224
4,COC[C@@H]1CN(CCN2CCN(C(=O)c3cc(SC)cc(C(F)(F)F)c3)[C@H](Cc3ccc(Cl)c(O)c3)C2)CCO1.Cl.Cl,169 to 174
5,COc1cc(C(=O)N2CCN(Cc3cnn(C)c3)C[C@H]2Cc2c[nH]c3ccccc23)cc(C(F)(F)F)c1.Cl,210 to 220
6,COc1cc(C(=O)N2CCN(CCN3CCc4ncccc4C3)C[C@H]2Cc2ccc(F)cc2)cc(C(F)(F)F)c1.Cl.Cl.Cl,148.7 to 152.3
7,CC1(C)COCCN1CC#CCN1CCN(C(=O)c2cc(C(F)(F)F)cc(C(F)(F)F)c2)[C@H](Cc2ccc(F)cc2)C1.Cl.Cl,76.5 to 130.6
8,Cl.Cn1cc(CN2CCN(C(=O)c3cc(C(F)(F)F)cc(C(F)(F)F)c3)[C@H](Cc3ccc(F)cc3)C2)cn1,143.3 to 146.4
9,Cl.Cl.O=C(c1cc(C(F)(F)F)cc(C(F)(F)F)c1)N1CCN(Cc2cccnc2)C[C@H]1Cc1ccc(F)c(O)c1,50 to 60
10,Cl.Cl.O=C(c1cc(C(F)(F)F)cc(C(F)(F)F)c1)N1CCN(Cc2c[nH]c3cccnc23)C[C@H]1Cc1ccc(Cl)c(O)c1,208 to 211
11,CC1(C)COCCN1CC#CCN1CCN(C(=O)c2cc(C(F)(F)F)cc(C(F)(F)F)c2)[C@H](Cc2ccc(F)c(O)c2)C1.Cl.Cl,180 to 184
12,COC[C@@H]1C[C@@H](OC)CN1CCN1CCN(C(=O)c2cc(C(F)(F)F)cc(C(F)(F)F)c2)[C@H](Cc2ccc(F)c(OC)c2)C1.Cl.Cl,128 to 134
13,COc1cc(C(=O)N2CCN(Cc3cnn(C)c3)C[C@H]2Cc2ccc(Cl)cc2)cc(C(F)(F)F)c1.Cl,70 to 100
14,CC1(C)COCCN1CC#CCN1CCN(C(=O)c2cc(C(F)(F)F)cc(C(F)(F)F)c2)[C@H](Cc2ccc(C(F)(F)F)cc2)C1.Cl.Cl,110 to 130
15,COC[C@@H]1CN(CCN2CCN(C(=O)c3cc([N+](=O)[O-])cc(C(F)(F)F)c3)[C@H](Cc3ccc(C)c(O)c3)C2)CCO1.Cl.Cl,181 to 185
16,CNc1cc(C(=O)N2CCN(CCN3C[C@@H](C)O[C@@H](C)C3)C[C@H]2Cc2ccc(Cl)cc2)cc(C(F)(F)F)c1.Cl.Cl,245.6 to 248.7
17,COC[C@@H]1CN(CCN2CCN(C(=O)c3cc(OC)cc(C(F)(F)F)c3)[C@H](Cc3ccc(Cl)c(O)c3)C2)CCO1.Cl.Cl,160 to 168
18,Cc1ccc(C[C@@H]2CN(Cc3csc(N)n3)CCN2C(=O)c2cc(C(F)(F)F)cc(C(F)(F)F)c2)cc1O.Cl.Cl,205 to 215
19,COC[C@@H]1CN(CCN2CCN(C(=O)c3cc(C(F)(F)F)cc(S(=O)(=O)N4CCOCC4)c3)[C@H](Cc3ccc(C)c(O)c3)C2)CCO1.Cl.Cl,130 to 175

# System: Emesis in the dog
# Assay: Emesis in the dog (apomorphine-induced retching and vomiting)
# Type: in vivo
# Settings: dose of 0.32 mg/kg i.v., 5 min before subcutaneous apomorphine (0.1 mg/0.5 ml/kg), observed for 60 min
# Method: Individually housed adult female dogs (8 to 15 kg) were given an i.v. injection of a solution containing a test compound. 5 Min later the emetic responses (retching and vomiting) were induced by administration of subcutaneous apomorphine (0.1 mg/0.5 ml/kg) and observed for the next 60 min. The timing and number of retches and vomits observed were recorded for each animal. An individual animal was tested with at least 10 days between experiments.
row,Compound,inhibition rate of emesis in the dog [%]
1,"Cc1ccc(CC2CN(CCN3C[C@@H](C)O[C@@H](C)C3)CCN2C(=O)c2cc(C(F)(F)F)cc(C(F)(F)F)c2)cc1O.Cl.Cl (relative stereo) [Example 4-(1), 1-[3,5-Bis(trifluoromethyl)benzoyl]-4-[2-(cis-2,6-dimethylmorpholino)ethyl]-2-(3-hydroxy-4-methylbenzyl)piperazine dihydrochloride]",100

# — patent publication US7166598B2, “Piperazine derivatives” (Astellas Pharma Inc., priority 1998, dated 2007)
